Test results from PubChem BioAssay AID2060357 (Molecular Pharmacology Branch, DTP, NCI, 2025).

Test system: 292921-168-R-J2-PDC spheroids with HUVEC/MSC, viability
Assay: Anticancer human tumor 292921-168-R-J2-PDC patient-derived pancreatic carcinoma cell line growth inhibition [TAK]
Conditions: for IC50: curve of first compound; for viability, T/C: stronger effect = lower value
Description: Combinatorial screen of targeted agents with TAK-243 and ipatasertib in multi-cell type tumor spheroids
A high-throughput screen of multi-cell type tumor spheroids was designed to identify active combinations of targeted small molecules and TAK-243 or ipatasertib. Complex spheroids include a stromal component modeled by human endothelial cells (HUVEC) and fibroblasts modeled by human mesenchymal stem cells (MSCs). The concentration ranges selected for each drug and investigational agent were based upon clinically achievable concentrations if the clinical Cmax of the agent was known.
Compounds. The drugs and investigational agents: TAK-243 (785004), ipatasertib (767898), everolimus (733504), selumetinib (741078), bortezomib (756655), trametinib (758246), ixazomib (758254), vemurafenib (761431), dabrafenib (764134), sapanisertib (764658), alpelisib (765974), and copanlisib (816437), were obtained from the National Cancer Institute (NCI) Developmental Therapeutics Program Chemical Repository. The FDA-approved anticancer drug set is available from the NCI Developmental Therapeutics Program. […] The stock solutions were prepared in dimethyl sulfoxide (DMSO, Sigma-Aldrich, St. Louis, MO, cat. D2650) at 800-fold the tested concentration and stored at -70 degrees C prior to their use. All drugs and investigational agents were tested over a range starting from a high concentration at or near the clinical Cmax and decreasing in half-log increments. If the clinical Cmax for an agent had not been determined, the highest concentration tested was 10 microM.
NCI60 Cell Culture. NCI60 cell lines were obtained from the NCI Developmental Therapeutics Program Tumor Repository. For each lot of cells, the Repository performed Applied Biosystems AmpFLSTR Identifiler testing with PCR amplification to confirm consistency with the published Identifier STR profile for each cell line. Cells were kept in continuous culture for no more than 20 passages. The optimal seeding densities for each of the cell lines at each time point assessed were determined prior to performing the concentration response studies. Briefly, the NCI60 human tumor lines were grown as monolayers in RPMI 1640 medium supplemented with 10% FBS and 2 mmol/L L-glutamine.
An additional 2 lines were from the NCI60 cell line panel including melanomas, MALME-3M and SK-MEL-2. Pooled donor human umbilical vein endothelial cells (HUVEC, Lonza, cat. CC-2519) and human mesenchymal stem cells (hMSC, Lonza, cat. PT-2501) were purchased from Lonza (Walkersville, MD).
PDMR cell lines were grown in complete medium (DC medium): Dulbecco's modified Eagle's medium (DMEM)/F12 supplemented with 5% fetal bovine serum (FBS), 2 mM L-glutamine, 100 U/mL penicillin and 100 µg/ml streptomycin, 0.4 µg/ml hydrocortisone, 10 ng/ml epidermal growth factor (EGF) recombinant human protein, 24 µg/mL adenine, and 0.1 mg/mL primocin. During culture from frozen stock vials, PDMR cells were cultured in the same medium containing 10 µM Y-27632 (see Table 3). The PDCs were cultured in complete DMEM/F12 media without 10 microM Y-27632 dihydrochloride for at least two passages prior to the screen. The pooled donor HUVEC and hMSC were cultured in endothelial cell growth medium 2 (PromoCell, Heidelberg, Germany, cat. C-22011) and mesenchymal stem cell growth medium 2 (PromoCell, cat. C-28009), respectively. For all experiments, HUVEC and hMSC were used at passages </=5.
For the pre-screen, cell seeding densities were determined from a titration spanning the range from 5,000 to 313 cells per well. The mct-spheroids including 60% malignant cells, 25% HUVEC and 15% MSC dispensed as a mixture into U-bottom Ultra-Low Attachment 384-well plates (Corning, NY)
High-throughput Drug Combination Screening.
Prior to their inoculation into 384-well plates, malignant cells, HUVEC, and hMSC were removed from T flasks using TrypLE express (Thermo Fisher Scientific, cat. 12605036) and harvested by centrifugation for 5 min at 233 x g. […]
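Further: spheroids exposed to drugs for seven days before readout.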

CC(C)n1nc(-c2ccc3oc(N)nc3c2)c2c(N)ncnc21 + CC(C)NCC(C(=O)N1CCN(c2ncnc3c2C(C)CC3O)CC1)c1ccc(Cl)cc1
IC50 (second compound 0.3 µM): 9.58 nM
IC50 (second compound 0.949 µM): 8.57 nM
IC50 (second compound 3 µM): 6.94 nM
IC50 (second compound 9.49 µM): 2.52 nM
IC50 (second compound 30 µM): < 0.316 nM
viability, T/C (second compound 0.3 µM, first compound 0.000316 µM): 81%
viability, T/C (second compound 0.3 µM, first compound 0.001 µM): 77.2%
viability, T/C (second compound 0.3 µM, first compound 0.00316 µM): 67.4%
viability, T/C (second compound 0.3 µM, first compound 0.01 µM): 49.9%
viability, T/C (second compound 0.3 µM, first compound 0.0316 µM): 35.3%
viability, T/C (second compound 0.3 µM, first compound 0.1 µM): 32.2%
viability, T/C (second compound 0.949 µM, first compound 0.000316 µM): 81.6%
viability, T/C (second compound 0.949 µM, first compound 0.001 µM): 70.9%
viability, T/C (second compound 0.949 µM, first compound 0.00316 µM): 63.7%
viability, T/C (second compound 0.949 µM, first compound 0.01 µM): 48.9%
viability, T/C (second compound 0.949 µM, first compound 0.0316 µM): 35%
viability, T/C (second compound 0.949 µM, first compound 0.1 µM): 32.2%
viability, T/C (second compound 3 µM, first compound 0.000316 µM): 73.6%
viability, T/C (second compound 3 µM, first compound 0.001 µM): 73%
viability, T/C (second compound 3 µM, first compound 0.00316 µM): 62.2%
viability, T/C (second compound 3 µM, first compound 0.01 µM): 43.8%
viability, T/C (second compound 3 µM, first compound 0.0316 µM): 34.2%
viability, T/C (second compound 3 µM, first compound 0.1 µM): 29%
viability, T/C (second compound 9.49 µM, first compound 0.000316 µM): 63.7%
viability, T/C (second compound 9.49 µM, first compound 0.001 µM): 57%
viability, T/C (second compound 9.49 µM, first compound 0.00316 µM): 48.3%
viability, T/C (second compound 9.49 µM, first compound 0.01 µM): 37.8%
viability, T/C (second compound 9.49 µM, first compound 0.0316 µM): 27.6%
viability, T/C (second compound 9.49 µM, first compound 0.1 µM): 26.3%
viability, T/C (second compound 30 µM, first compound 0.000316 µM): 43.4%
viability, T/C (second compound 30 µM, first compound 0.001 µM): 39.7%
viability, T/C (second compound 30 µM, first compound 0.00316 µM): 33.7%
viability, T/C (second compound 30 µM, first compound 0.01 µM): 26.4%
viability, T/C (second compound 30 µM, first compound 0.0316 µM): 23.9%
viability, T/C (second compound 30 µM, first compound 0.1 µM): 21.7%

CCCS(=O)(=O)Nc1ccc(F)c(C(=O)c2c[nH]c3ncc(-c4ccc(Cl)cc4)cc23)c1F + CC(C)NCC(C(=O)N1CCN(c2ncnc3c2C(C)CC3O)CC1)c1ccc(Cl)cc1
IC50 (second compound 0.3 µM): 29900 nM
IC50 (second compound 0.949 µM): > 100000 nM
IC50 (second compound 3 µM): 11000 nM
IC50 (second compound 9.49 µM): 5500 nM
IC50 (second compound 30 µM): < 316 nM
viability, T/C (second compound 0.3 µM, first compound 0.316 µM): 109%
viability, T/C (second compound 0.3 µM, first compound 1 µM): 106%
viability, T/C (second compound 0.3 µM, first compound 3.16 µM): 102%
viability, T/C (second compound 0.3 µM, first compound 10 µM): 67.5%
viability, T/C (second compound 0.3 µM, first compound 31.6 µM): 44.7%
viability, T/C (second compound 0.3 µM, first compound 100 µM): 52.2%
viability, T/C (second compound 0.949 µM, first compound 0.316 µM): 95.2%
viability, T/C (second compound 0.949 µM, first compound 1 µM): 104%
viability, T/C (second compound 0.949 µM, first compound 3.16 µM): 89.6%
viability, T/C (second compound 0.949 µM, first compound 10 µM): 52.5%
viability, T/C (second compound 0.949 µM, first compound 31.6 µM): 41.4%
viability, T/C (second compound 0.949 µM, first compound 100 µM): 65.2%
viability, T/C (second compound 3 µM, first compound 0.316 µM): 94.7%
viability, T/C (second compound 3 µM, first compound 1 µM): 96%
viability, T/C (second compound 3 µM, first compound 3.16 µM): 81.3%
viability, T/C (second compound 3 µM, first compound 10 µM): 44.2%
viability, T/C (second compound 3 µM, first compound 31.6 µM): 41%
viability, T/C (second compound 3 µM, first compound 100 µM): 16.8%
viability, T/C (second compound 9.49 µM, first compound 0.316 µM): 72.5%
viability, T/C (second compound 9.49 µM, first compound 1 µM): 75.4%
viability, T/C (second compound 9.49 µM, first compound 3.16 µM): 62.5%
viability, T/C (second compound 9.49 µM, first compound 10 µM): 35.5%
viability, T/C (second compound 9.49 µM, first compound 31.6 µM): 26.2%
viability, T/C (second compound 9.49 µM, first compound 100 µM): 17.7%
viability, T/C (second compound 30 µM, first compound 0.316 µM): 48.3%
viability, T/C (second compound 30 µM, first compound 1 µM): 49.2%
viability, T/C (second compound 30 µM, first compound 3.16 µM): 35.7%
viability, T/C (second compound 30 µM, first compound 10 µM): 16.6%
viability, T/C (second compound 30 µM, first compound 31.6 µM): 14.9%
viability, T/C (second compound 30 µM, first compound 100 µM): 9.5%
